The text below walks through data of patent publication US8343475B2, “Small cationic antimicrobial peptides” (priority 2006, dated 2013).

Common to all, as to type: cell-based
Experiment [1] has as its system Enterococcus faecalis ATCC29212. The following applies: ATCC29212. On the procedure:
(§1) Minimal inhibitory concentration (MIC) determination. The MIC of the peptides were measured using a modified broth microdilution method in Mueller Hinton (MH) medium (Wu M, Hancock R E W. 1999. Interaction of the cyclic antimicrobial cationic peptide bactenecin with the outer and cytoplasmic membrane. J Biol Chem 274, 29-35). Briefly, the peptides were dissolved and stored in glass vials. The assay was performed in sterile 96-well polypropylene microtitre plates were used. Serial dilutions of the peptides to be assayed were performed in 0.01% acetic acid (Fisher) containing 0.2% bovine serum albumin (Boehringer Mannheim GmbH) at 10× the desired final concentration. Ten microlitres of the 10× peptides were added to each well of a 96-well polypropylene plate containing 90 μl of MH media per well. Bacteria were added to the plate from an overnight culture at 2-7×10^5 colony forming units/ml and incubated over night at 37° C. The MIC was taken as the concentration at which no growth was observed.
(§2) Strains. For the killing assay a mini-Tn5-lux mutant in Pseudomonas aeruginosa H103 was used. The strain is called H1001 and contains a fliC::luxCDABE transcriptional fusion resulting in constitutive expression of luciferase. The bacterial strains used for the antimicrobial activity assays included Escherichia coli UB1005 (F-, nalA37, metB1), a wild-type Salmonella enterica ssp. typhimurium (S. typhimurium), wild-type Pseudomonas aeruginosa PAO1 strain H103, Enterococcus faecalis ATCC29212, Staphylococcus aureus ATCC25923, and a clinical isolate of Staphylococcus epidermidis obtained from Dr. D. Speert (Department of Medicine, University of British Columbia). Antifungal activity was tested using a lab isolate of Candida albicans obtained from Dr. B. Dill (Department of Microbiology and Immunology, University of British Columbia).

Experiment [2] deals with lab isolate of Candida albicans. The settings on record: lab isolate of. On the procedure: as §1, §2
Experiment [3] has as its system clinical isolate of Staphylococcus epidermidis. The settings on record: clinical isolate of. On the procedure: as §1, §2
In experiment [4] the test system is wild-type Salmonella enterica ssp. typhimurium. On the procedure: as §1, §2
Experiment [5] has as its system Staphylococcus aureus ATCC25923. The following applies: ATCC25923. On the procedure:
as §1, §2

The test system of a further experiment is Escherichia coli UB1005. The following applies: UB1005. On the procedure: as §1, §2
The subject of experiment [6] is Pseudomonas aeruginosa PAO1 strain H103. The following applies: PAO1. An outline of the steps:
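Modified broth microdilution MIC in Mueller Hinton medium, peptides diluted in 0.01% acetic acid/0.2% BSA, polypropylene plates. Inoculum 2-7×10^5 CFU/ml, overnight at 37 °C; MIC is the lowest concentration with no visible growth.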

Values after ≈ are worked out from the molar mass of the structure shown. Residues, ends and D or L forms follow the SMILES beside them. A value given as a limit tells only on which side of the number the result lay.

As for `CC[C@H](C)[C@H](NC(=O)[C@H](CCCNC(=N)N)NC(=O)[C@H](Cc1ccccc1)NC(=O)[C@H](CCCNC(=N)N)NC(=O)[C@@H](N)CCCCN)C(=O)N[C@@H](CCCNC(=N)N)C(=O)N[C@H](C(=O)N[C@@H](C)C(=O)N[C@H](C(=O)N[C@@H](CCCNC(=N)N)C(=O)N[C@@H](CCCNC(=N)N)C(=O)N[C@@H](C)C(N)=O)C(C)C)C(C)C` [HH10, KRFRIRVAVRRA] (H-KRFRIRVAVRRA-NH2; N-terminus assumed), the “MIC E. faecalis” value in experiment [1] was above 50 µg/mL. The “MIC C. albicans” value in experiment [2] turned out to be 12 µg/mL (≈ 7.86 µM). For the same compound, the “MIC S. epi.” value in experiment [3] came out at 3.1 µg/mL (≈ 2.03 µM). Further, the “MIC S. typhi” value in experiment [4] is above 50 µg/mL. In addition, the “MIC S. aureus” value in experiment [5] stood at 25 µg/mL (≈ 16.4 µM). The “MIC E. coli” value in the experiment with Escherichia coli UB1005 was found to be 6 µg/mL (≈ 3.93 µM). Also, the “MIC P. aerug” value in experiment [6] is 25 µg/mL (≈ 16.4 µM).

As to `CC[C@H](C)[C@H](NC(=O)[C@H](CCCNC(=N)N)NC(=O)[C@H](CC(C)C)NC(=O)[C@H](CCCNC(=N)N)NC(=O)[C@@H](N)C(C)C)C(=O)N[C@@H](CCCNC(=N)N)C(=O)N[C@H](C(=O)N[C@@H](CCCNC(=N)N)C(=O)N[C@H](C(=O)N[C@H](C(=O)N[C@@H](CCCNC(=N)N)C(=O)N[C@@H](CCCCN)C(N)=O)[C@@H](C)CC)C(C)C)C(C)C` [HH11, VRLRIRVRVIRK] (H-VRLRIRVRVIRK-NH2; N-terminus assumed), the “MIC E. faecalis” value in experiment [1] is 12 µg/mL (≈ 7.68 µM). Further, the “MIC C. albicans” value in experiment [2] came to 3 µg/mL (≈ 1.92 µM). Besides, in experiment [3], the “MIC S. epi.” value came to 0.8 µg/mL (≈ 0.512 µM). For the same compound, in experiment [4], the “MIC S. typhi” value came out at 6 µg/mL (≈ 3.84 µM). In addition, in experiment [5], the “MIC S. aureus” value worked out at 6 µg/mL (≈ 3.84 µM). Besides, the “MIC E. coli” value in the experiment with Escherichia coli UB1005 stood at 1.6 µg/mL (≈ 1.02 µM). For the same compound, the “MIC P. aerug” value in experiment [6] stood at 3 µg/mL (≈ 1.92 µM).

For the compound `CC[C@H](C)[C@H](NC(=O)[C@H](CCCNC(=N)N)NC(=O)[C@H](Cc1c[nH]c2ccccc12)NC(=O)[C@H](CCC(N)=O)NC(=O)[C@@H](N)Cc1c[nH]cn1)C(=O)N[C@@H](CCCNC(=N)N)C(=O)N[C@H](C(=O)N[C@@H](C)C(=O)N[C@H](C(=O)N[C@@H](CCCNC(=N)N)C(=O)N[C@@H](CCCNC(=N)N)C(=O)N[C@@H](Cc1c[nH]cn1)C(N)=O)C(C)C)C(C)C` [HH14, HQWRIRVAVRRH] (H-HQWRIRVAVRRH-NH2), in experiment [1], the “MIC E. faecalis” value is above 50 µg/mL. Further, the “MIC C. albicans” value in experiment [2] came out at 25 µg/mL (≈ 15.5 µM). Moreover, in experiment [3], the “MIC S. epi.” value came out at 12 µg/mL (≈ 7.44 µM). The “MIC S. typhi” value in experiment [4] is 25 µg/mL (≈ 15.5 µM). Further, the “MIC S. aureus” value in experiment [5] was determined as 25 µg/mL (≈ 15.5 µM). Moreover, the “MIC E. coli” value against Escherichia coli UB1005 stood at 6 µg/mL (≈ 3.72 µM). The “MIC P. aerug” value in experiment [6] was 50 µg/mL (≈ 31 µM).

For the compound `CC[C@H](C)[C@H](NC(=O)[C@H](CCCNC(=N)N)NC(=O)[C@H](Cc1ccccc1)NC(=O)[C@H](CCCNC(=N)N)NC(=O)[C@@H](N)CCCCN)C(=O)N[C@@H](CCCNC(=N)N)C(=O)N[C@H](C(=O)N[C@@H](CCCNC(=N)N)C(=O)N[C@H](C(=O)N[C@H](C(=O)N[C@@H](CCCNC(=N)N)C(=O)N[C@@H](CCCCN)C(N)=O)[C@@H](C)CC)C(C)C)C(C)C` [HH15, KRFRIRVRVIRK] (H-KRFRIRVRVIRK-NH2), in experiment [1], the “MIC E. faecalis” value is 25 µg/mL (≈ 15.4 µM). For the same compound, the “MIC C. albicans” value in experiment [2] is 12 µg/mL (≈ 7.38 µM). In addition, the “MIC S. epi.” value in experiment [3] came to 0.8 µg/mL (≈ 0.492 µM). The “MIC S. typhi” value in experiment [4] was 3 µg/mL (≈ 1.84 µM). In addition, in experiment [5], the “MIC S. aureus” value turned out to be 6 µg/mL (≈ 3.69 µM). Besides, the “MIC E. coli” value in the experiment on Escherichia coli UB1005 amounted to 1.6 µg/mL (≈ 0.984 µM). In experiment [6], the “MIC P. aerug” value was 6 µg/mL (≈ 3.69 µM).

Consider `CC[C@H](C)[C@H](NC(=O)[C@H](CCCNC(=N)N)NC(=O)[C@H](Cc1c[nH]c2ccccc12)NC(=O)[C@H](CCCNC(=N)N)NC(=O)[C@@H](N)CCCCN)C(=O)N[C@@H](CCCNC(=N)N)C(=O)N[C@H](C(=O)N[C@@H](CCCNC(=N)N)C(=O)N[C@H](C(=O)N[C@H](C(=O)N[C@@H](CCCNC(=N)N)C(=O)N[C@@H](CCCCN)C(N)=O)[C@@H](C)CC)C(C)C)C(C)C` [HH16, KRWRIRVRVIRK] (H-KRWRIRVRVIRK-NH2), for which the “MIC E. faecalis” value in experiment [1] worked out at 12 µg/mL (≈ 7.21 µM). In experiment [2], the “MIC C. albicans” value was 6 µg/mL (≈ 3.6 µM). Also, in experiment [3], the “MIC S. epi.” value amounted to 0.8 µg/mL (≈ 0.48 µM). Besides, the “MIC S. typhi” value in experiment [4] stood at 3 µg/mL (≈ 1.8 µM). In addition, the “MIC S. aureus” value in experiment [5] was determined as 3 µg/mL (≈ 1.8 µM). In addition, in the experiment with Escherichia coli UB1005, the “MIC E. coli” value amounted to 1.6 µg/mL (≈ 0.961 µM). Moreover, the “MIC P. aerug” value in experiment [6] came out at 3 µg/mL (≈ 1.8 µM).
